How the values were obtained:
MDA-MB-435 = experiment: IC50 and LC50 of ATA at 48 h; format: cell-based; settings: Homo sapiens, MDA-MB-435 melanoma
HL-60 = experiment: IC50 and LC50 of ATA at 48 h; format: cell-based; settings: Homo sapiens, HL-60 leukemia
[1] = IC50 and LC50 of ATA at 48 h; format: cell-based; settings: human, MCF-10A cells (non-cancer breast cell line), MCF-10A non-cancer breast cell line
MCF-10A = experiment: IC50 and LC50 of ATA at 48 h; format: cell-based; settings: Homo sapiens, MCF-10A non-cancer breast cell line
A549 = experiment: IC50 of ATA at 72 h; format: cell-based; settings: Homo sapiens, A549 lung cancer cells
Procedure: (§1) The cytotoxcitiy of ATA was assessed in cancer cell lines and normal cells. In order to do so the IC50 of ATA at 72 h in multiple cancer cell lines or normal cell lines including muscle and fibroblast cells was evaluated.

C2C12 (non-cancerous) = experiment: IC50 of ATA at 72 h; format: cell-based; settings: Mus musculus, C2C12 myoblast (normal muscle cells)
Procedure: as §1

Caco2 = experiment: IC50 of ATA at 72 h; format: cell-based; settings: Homo sapiens, Caco-2, Caco2 colorectal adenocarcinoma
Procedure: as §1

HCT 116 = experiment: IC50 of ATA at 72 h; format: cell-based; settings: Homo sapiens, HCT 116 colorectal adenocarcinoma
Procedure: as §1

HCT 15 = experiment: IC50 of ATA at 72 h; format: cell-based; settings: Homo sapiens, HCT 15 colorectal adenocarcinoma
Procedure: as §1

HeLa = experiment: IC50 of ATA at 72 h; format: cell-based; settings: Homo sapiens, HeLa cervical cancer cells
Procedure: as §1

HepG2 = experiment: IC50 of ATA at 72 h; format: cell-based; settings: Homo sapiens, HepG2 liver cancer cells
Procedure: as §1

IMR-90 (non-cancerous) = experiment: IC50 of ATA at 72 h; format: cell-based; settings: Homo sapiens, IMR-90 fibroblast (normal lung cells)
Procedure: as §1

K-562 = experiment: IC50 of ATA at 72 h; format: cell-based; settings: Homo sapiens, K562, K-562 leukaemia cells
Procedure: as §1

SK-N-SH = experiment: IC50 of ATA at 72 h; format: cell-based; settings: Homo sapiens, SK-N-SH neuroblastoma
Procedure: as §1

T47D = experiment: Growth inhibition at 72 h by MTT assay; format: cell-based; settings: T47D (ER+)
[2] = test system: Four types of cancer cells; experiment: ATA versus TIIA, cell viability by MTT assay after 48 h; format: cell-based; settings: 10 μM or 20 μM
Procedure: Four types of cancer cells were treated with ATA or TIIA at either 10 μM or 20 μM and the cell viability was measured by MTT assay after 48 h of compound addition. * p<0.01.

[3] = test system: Bax and cytochrome c in MDA-MB-435 cells; experiment: Bax translocation and cytochrome c release, cell fractionation Western blot and immunofluorescence; format: cell-based, human; settings: 5 μM ATA, 24 h, normalized to control 1.0
Procedure: The concentration of ATA and PG were 5 μM and 20 μM, respectively. […] Scale bar=10 μm.
The value of CY/MT represents the ratio of integrated band intensity of cytosol fraction (CY) over corresponding integrated band intensity of mitochondrial fraction (MT). The ratio was normalized by the control group. Two proteins were used as internal markers to judge the quality of cell fractionation experiment: Cox IV for mitochondria and β-tubulin mainly for cytosol.
The subcellular localization changes of Bax and cytochrome c during ATA-induced apoptosis were first examined using immunofluorescence staining.
It was further tested, whether PG could prevent ROS generation after ATA treatment.

MDA-MB-435 cells = experiment: cells; format: cell-based; settings: Homo sapiens, MDA-MB-435, 24 h, read-out: cell viability
Procedure: (A) ROS generation in various cancer cell lines was detected using H2DCFDA after 10 μM ATA treatment for 2 h. The number indicates the fold of increase in ROS level compared to control. (B) Antioxidant prevented ATA-induced MDA-MB-435 cell death. Various antioxidants at the indicated concentration were tested for their protective effects against ATA-induced MDA-MB-435 cell death. Cells were first pre-treated with each antioxidant for 1 h and then ATA was added into the culture medium in the presence of antioxidants. The cell viability was measured by sulforhodamine B (SRB) colorimetric assay for cytotoxicity determination (* p<0.01).
(A) PG prevented ATA-induced cell death. Three concentrations of PG were tested for their protective effects on ATA-induced cell death. The cell viability was measured by SRB assay. (* p<0.01). (B) PG protected ROS generation caused by ATA treatment. […] All the experiments were performed at least three times. The results presented in this figure are the average of three experiments. […]
Since the generation of ROS was detected in all six examined cell lines and it occurred only 2 h after ATA addition, which was at least 4-6 h ahead of Bax translocation, it was speculated that ATA-mediated ROS generation might be the cause for cell death. […] The percentage of cell death after 24 h of ATA treatment was measured using SRB cytotoxicity assay.

ESR1 mRNA in MCF-7 cells = experiment: Real-time PCR of ESR1 mRNA level; settings: 100 pM estrogen plus 6 μM compound
Procedure: MCF-7 cells cultured in the charcoal-stripped medium were used as control for the 0 h sample.

MDA-MB-231 = experiment: Growth inhibition at 72 h by MTT assay
BT474 = experiment: Growth inhibition at 72 h by MTT assay

With `CC(=O)Oc1c(OC(C)=O)c2c(C)coc2c2ccc3c(c12)CCCC3(C)C` [ATA, 1,6,6-trimethyl-8,9-dihydro-10,11-diacetoxyl-7H-naphtho[1,2-g][1]benzofuran] the CC50 (MDA-MB-435) was 2740 ± 510 nM, the IC50 (MDA-MB-435) was 550 ± 150 nM and the CC50 (HL-60) was 8530 ± 200 nM. For the same molecule, the IC50 (HL-60) was 2980 ± 370 nM, the CC50 at 48 h [1] was 16300 ± 4460 nM and the IC50 (MCF-10A) was 6640 nM. It also gave an IC50 (A549) of 810 ± 130 nM, an IC50 (C2C12 (non-cancerous)) of 10200 ± 1440 nM and an IC50 (Caco2) of 2500 ± 450 nM. The IC50 (HCT 116) was 2280 ± 490 nM, the IC50 (HCT 15) was 560 ± 80 nM and the IC50 (HeLa) was 690 ± 190 nM. The IC50 (HepG2) was 4270 ± 730 nM, the IC50 (IMR-90 (non-cancerous)) was 15500 ± 710 nM and the IC50 (K-562) was 1690 ± 340 nM. The IC50 (SK-N-SH) was 1240 ± 120 nM, the IC50 (T47D; Homo sapiens) was 1400 ± 200 nM and the “IC50 ratio of tamoxifen/ATA” value (T47D) was 6.7. For the same molecule, the “growth inhibition effect compared with TIIA” value [2] was “stronger growth inhibition effect than TIIA”, the “ratio of Bax level in the cytosol to that in the mitochondria” value [3] was under 0.1 and the “ratio of cytochrome c level in cytosol to that in mitochondria” value [3] was 7.5. The viability at 5 µM (MDA-MB-435 cells) was 35%, the “level of ESR1 mRNA over control” value (ESR1 mRNA in MCF-7 cells; 12 h, charcoal-stripped medium) was 55% and the “level of ESR1 mRNA over control” value (ESR1 mRNA in MCF-7 cells; 24 h, charcoal-stripped medium) was 31%. For the same molecule, the “level of ESR1 mRNA over control” value (ESR1 mRNA in MCF-7 cells; 24 h, normal medium) was “about 30%”, the “level of ESR1 mRNA over control” value (ESR1 mRNA in MCF-7 cells; 36 h and 48 h, charcoal-stripped medium) was “about 50%” and the IC50 (MDA-MB-231; Homo sapiens, MDA-MB-231, 72 h) was 7980 ± 180 nM. For the same molecule, the inhibition at 3.13 µM (MDA-MB-231; Homo sapiens, MDA-MB-231, 72 h, read-out: growth inhibition rate) was 32.3%, the “IC50 value at 72 h lower in ER-positive than ER-negative cells” value (MDA-MB-231; MCF-7 and T47D versus MDA-MB-231) was 5.4-5.7 fold and the “IC50 ratio of tamoxifen/ATA” value (MDA-MB-231; MDA-MB-231 (ER−), 72 h) was 2.7. For the same molecule, the “Ratio of ER−/ER+ 231/MCF-7” value (MDA-MB-231; ratio of IC50 at 72 h, MDA-MB-231 over MCF-7) was 5.4, the “Ratio of ER−/ER+ 231/T47D” value (MDA-MB-231; ratio of IC50 at 72 h, MDA-MB-231 over T47D) was 5.7 and the “IC50 ratio of tamoxifen/ATA” value (BT474; BT474 (ER+/HER2+), 72 h) was 6.2. For the same molecule, the IC50 (BT474; Homo sapiens, BT-474, 72 h) was 1000 nM and the inhibition at 3.13 µM (BT474; Homo sapiens, BT-474, 72 h, read-out: growth inhibition rate) was 146%.

From patent US9226912B2, “Acetyltanshinone IIA (ATA) as anticancer agent” (Nanyang Technological University, priority 2011, dated 2016)
